Consider 23 compounds from patent EP1746087A1, “Derivates of 3-indolylmethylene having cytostatic properties” (Universitaet Regensburg, priority 2005, dated 2007).

Assay type in all cases: cell-based, menschlich
The test system of assay [1] is MDA-MB-231-Brustkrebszellen. Kind of assay: Growth inhibition of MDA-MB-231 breast cancer cells in vitro (cytostatic effect). Conditions: MDA-MB-231 cells, read-out: IC50 Hemmwirkung auf das Wachstum. The text has this:
(§1) Die cytostatische Wirkung der erfindungsgemäßen Verbindungen wurde an zwei verschiedenen menschlichen Mammacarcinomzellinien in vitro bestimmt (M. Goldbrunner et al., J.Med.Chem. 1997,40,3525). Es handelt sich dabei um die hormonunabhängige MDA-MB-231-Zellinie und die estrogensensitive MCF-7-Linie. Die MDA-MB-231-Zellen wurden auch für die durchflusszytometrischen Analysen zur Zellzyklusverteilung herangezogen (M.J.J. Jaroszeski und R. Heller, Flow Cytometry Protocols, Humana Press, 1998, Totowa New Jersey). Besonders überraschend war, dass diese synthetischen Verbindungen häufig bereits im Konzentrationsbereich von 10 bis 100 nanomolar das Wachstum von menschlichen Tumorzellen stark hemmen, obwohl sie nur ein relativ niedriges Molekulargewicht aufweisen (MG ~ 320 - 500) (Tabelle 2 und 3, Abb. 2). Potente Therapeutika, die ebenfalls in den Zellzyklus eingreifen, besitzen Molekulargewichte im Bereich von 825 (Vincristin als Base) und 850 (Paclitaxel).

Assay [2] concerns MCF-7-Mammacarcinomzellen. Kind of assay: Growth inhibition of MCF-7 mammary carcinoma cells in vitro (cytostatic effect). To be noted: MCF-7 cells, read-out: IC50 Hemmwirkung auf das Wachstum.
Text: as §1

Assay [3] concerns MDA-MB-231-Mammacarcinomzellen. Kind of assay: Flow-cytometric analysis of cell cycle distribution.
Text: as §1

Several values for one entry are separate records, joined by “and”; a condition that tells them apart may be missing. Equal values may be shown once. Read-outs that look alike come from different tables or passages of the source.

As a reminder, the IC50 is the point on the concentration scale where inhibition reaches its midpoint. In the case of `COc1ccc(-c2[nH]c3cc(Cl)c(C)cc3c2C=C(C#N)C#N)cc1` [Verbindung 2, [6-Chlor-2-(4-methoxyphenyl)-5-methyl-indol-3-yl]-methylenpropandinitril], the results for the IC50 in assay [1] and in assay [2] were 75 nM and 200 nM, respectively.

As to `COc1ccc2c(C=C(C#N)C#N)c(-c3ccc(C)cc3)[nH]c2c1` [Verbindung 3, [6-Methoxy-2-(4-methylphenyl)-indol-3-yl]-methylenpropandinitril], the half-inhibitory concentration (IC50) was found to be 180 nM in assay [1] (Homo sapiens) and 250 nM in assay [2] (Homo sapiens, MCF7).

As to `COc1ccc(-c2[nH]c3ccc(F)cc3c2C=C(C#N)C#N)cc1` [Verbindung 4, [5-Fluor-2-(4-methoxyphenyl)-indol-3-yl]methylenpropandinitril], in assay [1], the IC50 was 400 nM.

Turning to `CCCc1ccc2[nH]c(-c3ccc(OC)cc3)c(C=C(C#N)C#N)c2c1` [Verbindung 5, [2-(4-Methoxyphenyl)-5-n-propyl-indol-3-yl]-methylenpropandinitril], the 50% inhibitory concentration (IC50) in assay [1] (Homo sapiens) was determined as 83 nM.

For the compound `COc1ccc(-c2[nH]c3cc(C(C)C)ccc3c2C=C(C#N)C#N)cc1` [Verbindung 6, [6-Isopropyl-2-(4-methoxyphenyl)-indol-3-yl]methylenpropandinitril], the IC50 in assay [1] (Homo sapiens) stood at 210 nM; in assay [2] (Homo sapiens, MCF7), 310 nM.

For `CCCCc1ccc2[nH]c(-c3ccc(OC)cc3)c(C=C(C#N)C#N)c2c1` [Verbindung 7, [5-n-Butyl-2-(4-methoxyphenyl)-indol-3-yl]-methylenpropandinitril], the half-maximal inhibitory concentration (IC50) in assay [1] (Homo sapiens) worked out at 13 nM; in assay [2] (Homo sapiens, MCF7), 13 nM.

For the compound `COc1ccc(-c2[nH]c3cc(OC)ccc3c2C=C(C#N)C#N)cc1` [Verbindung 10, [6-Methoxy-2-(4-methoxyphenyl)-indol-3-yl]methylenpropandinitril], the 50% inhibitory concentration (IC50) in assay [1] (Homo sapiens) turned out to be 260 nM.

Turning to `COc1ccc(-c2[nH]c3ccccc3c2C=C(C#N)C#N)cc1` [Verbindung 11, [2-(4-Methoxyphenyl)-indol-3-yl]-methylenpropandinitril], the IC50 in assay [1] (Homo sapiens) turned out to be 720 nM.

As to `COc1cccc(-c2[nH]c3ccc(OC)cc3c2C=C(C#N)C#N)c1` [Verbindung 12, [5-Methoxy-2-(3-methoxyphenyl)-indol-3-yl]-methylenpropandinitril], in assay [1] (Homo sapiens), the IC50 was determined as 970 nM.

`CCCCc1ccc2[nH]c(-c3ccc(C(F)(F)F)cc3)c(C=C(C#N)C#N)c2c1` [Verbindung 13, {5-Butyl-2-[4-(trifluormethyl)-phenyl]-indol-3-yl}methylenpropandinitril]: the 50% inhibitory concentration (IC50) in assay [1] came out at 56 nM. In assay [3] (Konz. 0.01 µM), this compound came in with a Debris % of 2.9%, a G1/G0 % of 52.7%, a G2/M % of 22.1% and a S % of 22.9%. In assay [3] (Konz. 0.05 µM), the Debris % is reported as 3.0%, the G1/G0 % is listed as 52.3%, the G2/M % amounted to 22.1% and the S % is reported as 22.6%. In assay [3] (Konz. 0.1 µM), this compound showed a Debris % of 13.3%, a G1/G0 % of 52.6%, a G2/M % of 12.2% and a S % of 22.3%. In assay [3] (Konz. 0.5 µM), this compound came in with a Debris % of 5.5%, a G1/G0 % of 5.4%, a G2/M % of 76.3% and a S % of 9.2%.

For `CCCCc1ccc2[nH]c(-c3ccc(C)cc3)c(C=C(C#N)C#N)c2c1` [Verbindung 14, [5-Butyl-2-(4-methylphenyl)-indol-3-yl]-methylenpropandinitril], the IC50 in assay [1] (Homo sapiens) was determined as 65 nM. In assay [3] (Konz. 0.05 µM), the Debris % was 2.5%, the G1/G0 % came to 52.7%, the G2/M % is reported as 22.4% and the S % worked out at 24.0%. In assay [3] (Konz. 0.1 µM), this compound showed a Debris % of 3.3%, a G1/G0 % of 50.6%, a G2/M % of 21.9% and a S % of 24.6%. In assay [3] (Konz. 0.5 µM), this compound had a Debris % of 24.5%, a G1/G0 % of 16.7%, a G2/M % of 41.5% and a S % of 15.6%. In assay [3] (Konz. 1.0 µM), the Debris % came to 19.1%, the G1/G0 % is recorded as 6.1%, the G2/M % was determined as 64.2% and the S % was found to be 10.3%.

Regarding `CCCCc1ccc2[nH]c(-c3ccc(CC)cc3)c(C=C(C#N)C#N)c2c1` [Verbindung 15, [5-Butyl-2-(4-ethylphenyl)-indol-3-yl]-methylenpropandinitril], in assay [1] (Homo sapiens), the concentration for half-maximal inhibition (IC50) stood at 79 nM. Moreover, in assay [3] (Konz. 0.01 µM), the Debris % came to 5.0%, the G1/G0 % was determined as 53.6%, the G2/M % was 21.8% and the S % was found to be 20.0%. In assay [3] (Konz. 0.05 µM), the Debris % was determined as 6.6%, the G1/G0 % was determined as 50.3%, the G2/M % was determined as 19.8% and the S % is listed as 24.2%. In assay [3] (Konz. 0.1 µM), this compound returned a Debris % of 8.6%, a G1/G0 % of 51.8%, a G2/M % of 18.9% and a S % of 20.7%. In assay [3] (Konz. 0.5 µM), this compound returned a Debris % of 23.2%, a G1/G0 % of 5.7%, a G2/M % of 62.8% and a S % of 6.3%.

For `CCCCCc1ccc2[nH]c(-c3ccc(C(F)(F)F)cc3)c(C=C(C#N)C#N)c2c1` [Verbindung 16, {5-Pentyl-2-[4-(trifluormethyl)-phenyl]-indol-3-yl}-methylenepropandinitril], in assay [1], the concentration for half-maximal inhibition (IC50) stood at 78 nM.

Turning to `CCCCCCc1ccc2[nH]c(-c3ccc(C(F)(F)F)cc3)c(C=C(C#N)C#N)c2c1` [Verbindung 17, {5-Hexyl-2-[4-(trifluormethyl)phenyl]-indol-3yl}-methylenpropandinitril], the IC50 in assay [1] stood at 150 nM.

For the compound `CCCCc1ccc2[nH]c(-c3ccc(OC)cc3)c(C=C(C#N)C(=O)O)c2c1` [Verbindung 18, 3-[5-n-Butyl-2-(4-methoxyphenyl-)indol-3-yl]-2-cyanoacrylsäure], the concentration for half-maximal inhibition (IC50) in assay [1] came to 200 nM.

On to `COc1ccc(-c2[nH]c3cc(OC)ccc3c2C=NNc2ccccc2)cc1` [Verbindung 21, 6-Methoxy-2-(4-methoxyphenyl)-indol-3-carbaldehyd-phenylhydrazon], for which the 50% inhibitory concentration (IC50) in assay [1] (Homo sapiens) turned out to be 1000 nM.

In the case of `CCCCc1ccc2[nH]c(-c3ccc(OC)cc3)c(C=NNC(=O)c3ccc(Cl)cc3)c2c1` [Verbindung 23, 5-n-Butyl-2-(4-methoxyphenyl)-indol-3-carbaldehyd-(4-chlorbenzoyl)hydrazon], in assay [1], the half-maximal inhibitory concentration (IC50) was found to be 90 nM.

Consider `CCCCc1ccc2[nH]c(-c3ccc(CC)cc3)c(C=NNCc3cccnc3)c2c1` [Verbindung 26, 5-Butyl-2-(4-ethylphenyl)-indol-3-carbaldehyd-nicotinylhydrazon], for which the half-maximal inhibitory concentration (IC50) in assay [1] (Homo sapiens) turned out to be 53 nM. For the same compound, the Debris % in assay [3] (Konz. 0.01 µM) was determined as 3.2%; in assay [3] (Konz. 0.05 µM), 2.8%; in assay [3] (Konz. 0.1 µM), 3.4%; in assay [3] (Konz. 0.5 µM), 12.2%. Further, the G1/G0 % in assay [3] (Konz. 0.01 µM) came out at 51.0%; in assay [3] (Konz. 0.05 µM), 51.3%; in assay [3] (Konz. 0.1 µM) it was 49.2%; in assay [3] (Konz. 0.5 µM), 9.6%. Besides, the G2/M % came to 26.3% in assay [3] (Konz. 0.01 µM), 22.9% in assay [3] (Konz. 0.05 µM), 25.5% in assay [3] (Konz. 0.1 µM) and 66.9% in assay [3] (Konz. 0.5 µM). Moreover, the S % in assay [3] (Konz. 0.01 µM) is 20.2%; in assay [3] (Konz. 0.05 µM) it was 23.7%; in assay [3] (Konz. 0.1 µM), 23.0%; in assay [3] (Konz. 0.5 µM), 11.4%.

Consider `CCCCc1ccc2[nH]c(-c3ccc(C(F)(F)F)cc3)c(C=NNC(=O)c3ccccn3)c2c1` [Verbindung 27, 5-n-Butyl-2-[4-(trifluormethyl)-phenyl]-indol-3-carbaldehyd-picolinylhydrazon], for which, in assay [1], the concentration for half-maximal inhibition (IC50) was determined as 260 nM.

As for `CCCCc1ccc2[nH]c(-c3ccc(C(F)(F)F)cc3)c(C=NNC(=O)c3ccncc3)c2c1` [Verbindung 28, 5-Butyl-2-[4-(trifluormethyl)-phenyl]-indol-3-carbaldehyd-isonicotinylhydrazon], the half-inhibitory concentration (IC50) in assay [1] was determined as 94 nM. In assay [3] (Konz. 0.05 µM), this compound registered a Debris % of 3.5%, a G1/G0 % of 49.6%, a G2/M % of 24.2% and a S % of 25.6%. Besides, in assay [3] (Konz. 0.1 µM), the Debris % amounted to 3.8%, the G1/G0 % is recorded as 49.3%, the G2/M % was 24.0% and the S % turned out to be 23.7%. In assay [3] (Konz. 0.5 µM), this compound returned a Debris % of 16.7%, a G1/G0 % of 16.9%, a G2/M % of 50.2% and a S % of 15.0%.

Turning to `CCCCc1ccc2[nH]c(-c3ccc(OC)cc3)c(C=NN3C(=O)c4ccccc4C3=O)c2c1` [Verbindung 29, N-{[5-n-Butyl-2(4-methoxyphenyl)-indol-3-yl]methylenamino}-phthalimid], the IC50 in assay [1] (Homo sapiens) came to 30 nM.

Take `CCCCc1ccc2[nH]c(-c3ccc(C(F)(F)F)cc3)c(C=NNC(N)=O)c2c1` [Verbindung 30, 5-Butyl-2-[4-(trifluormethyl)-phenyl]-indol-3-carbaldehyd-semicarbazon]: the 50% inhibitory concentration (IC50) in assay [1] is 850 nM.

Regarding `CC[C@]1(O)C[C@H]2CN(CCc3c([nH]c4ccccc34)[C@@](C(=O)OC)(c3cc4c(cc3OC)N(C=O)[C@H]3[C@@](O)(C(=O)OC)[C@H](OC(C)=O)[C@]5(CC)C=CCN6CC[C@]43[C@@H]65)C2)C1` [Vincr., Vincristin, reference compound], in assay [3] (Konz. 0.1 µM), the G1/G0 % is 6.2% and 4.5% and 5.1% and 9.3% and 10.2% and 11.4% and 8.1%; the G2/M % is 67.0% and 76.0% and 60.7% and 53.8% and 61.0% and 48.4% and 54.1%.
